Test results as given in patent publication US20240116948A1, “PYRIDO OXAZINE DERIVATIVES AS ALK5 INHIBITORS” (CHIESI FARMACEUTICI S.P.A., priority 2020, published 2024).

Each compound was assayed against human ALK5 (Homo sapiens (Human), UniProt P36897) (assay: ADP-GLO Kinases assay, inhibition of ALK5 kinase activity). Conditions: Table 12; compounds classified in term of potency; ATP at Km, 25° C.; read-out: ALK5 IC50.
Type: biochemical
Description: The enzymatic activity of compounds of the present invention was monitored measuring the formation of ADP using the ADP-GLO Kinases assay. Following the incubation of the purified enzyme, a substrate and ATP, the produced ADP was converted into ATP, which in turn was converted into light by Ultra-Glo Luciferase. The luminescent signal positively correlated with ADP amount and kinase activity. Briefly, the kinase reaction was performed by incubating 2.6 nM of the purified, commercially available human ALK5 (recombinant TGF 31 N-term GST-tagged, 80-end), a final concentration of TGFβ1 peptide 94.5 μM (Promega, T36-58) and ultra-pure ATP (Promega V915B). The ATP concentration was set at the Km value (concentration of substrate which permits the enzyme to achieve half maximal velocity (Vmax)) of ALK5 (5 μM). All reactions/incubations were performed at 25° C. Compound and ALK5 kinase were mixed and incubated for 15 mins. Reactions were initiated by addition of ATP at a final concentration in the assay of […]. After an incubation of 150 min, the reaction was stopped, and ADP production detected with ADP-Glo kit according to manufacturer's indications. The assay was performed in 384-well format and was validated using a selection of reference compounds that was tested in 11 point concentration-response curve.
Compounds of the examples C1 and C2 were tested in the same in vitro assay described above.

Sequence of human ALK5 (P36897 80-503 limits assumed): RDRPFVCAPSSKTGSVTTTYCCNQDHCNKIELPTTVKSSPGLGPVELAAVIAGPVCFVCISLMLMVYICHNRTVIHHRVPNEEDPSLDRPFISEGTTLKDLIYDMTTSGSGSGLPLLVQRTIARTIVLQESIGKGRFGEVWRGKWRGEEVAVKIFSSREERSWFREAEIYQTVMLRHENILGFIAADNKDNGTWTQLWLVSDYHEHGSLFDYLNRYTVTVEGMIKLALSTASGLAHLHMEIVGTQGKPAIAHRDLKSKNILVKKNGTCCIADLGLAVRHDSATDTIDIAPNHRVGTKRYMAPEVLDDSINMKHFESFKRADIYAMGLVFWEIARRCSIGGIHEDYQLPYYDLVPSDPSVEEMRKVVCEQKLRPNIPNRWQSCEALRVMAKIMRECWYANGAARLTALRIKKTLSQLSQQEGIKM

| Compound | IC50 [nM] |
| --- | --- |
| CNCCNC(=O)c1cncc(-c2cc(-c3cc(Cl)ccc3F)nc3c2OCCN3)c1 [Example 23, 5-[6-(5-chloro-2-fluorophenyl)-2H,3H,4H-pyrido[3,2-b][1,4]oxazin-8-yl]-N-[2-(methylamino)ethyl]pyridine-3-carboxamide] | 1 to 5 |
| O=C(CCN1CCCCC1)Nc1cncc(-c2cc(-c3cc(Cl)ccc3F)nc3c2OCCN3)c1 [Example 18, N-{5-[6-(5-chloro-2-fluorophenyl)-2H,3H,4H-pyrido[3,2-b][1,4]oxazin-8-yl]pyridin-3-yl}-3-(piperidin-1-yl)propanamide] | ≤ 1 |
| CN(C)CC(=O)Nc1cncc(-c2cc(-c3cc(Cl)ccc3F)nc3c2OCCN3)c1 [Example 15, N-{5-[6-(5-chloro-2-fluorophenyl)-2H,3H,4H-pyrido[3,2-b][1,4]oxazin-8-yl]pyridin-3-yl}-2-(dimethylamino)acetamide] | 5 to 10 |
| Oc1cncc(-c2cc(-c3cc(Cl)ccc3F)nc3c2OCCN3)c1 [Example 29, 5-[6-(5-chloro-2-fluorophenyl)-2H,3H,4H-pyrido[3,2-b][1,4]oxazin-8-yl]pyridin-3-ol] | 1 to 5 |
| Cc1cccc(-c2cc(-c3cnc4[nH]ncc4c3)c3c(n2)NCCO3)n1 [Example 35, 2-methyl-6-(8-{1H-pyrazolo[3,4-b]pyridin-5-yl}-2H,3H,4H-pyrido[3,2-b][1,4]oxazin-6-yl)pyridine] | 5 to 10 |
| O=C(NCCN1CCCC1)c1cncc(-c2cc(-c3cc(Cl)ccc3F)nc3c2OCCN3)c1 [Example 26, 5-[6-(5-chloro-2-fluorophenyl)-2H,3H,4H-pyrido[3,2-b][1,4]oxazin-8-yl]-N-[2-(pyrrolidin-1-yl)ethyl]pyridine-3-carboxamide] | 5 to 10 |
| CN(C)CCCNC(=O)c1cncc(-c2cc(-c3cc(Cl)ccc3F)nc3c2OCCN3)c1 [Example 21, 5-[6-(5-chloro-2-fluorophenyl)-2H,3H,4H-pyrido[3,2-b][1,4]oxazin-8-yl]-N-[3-(dimethylamino)propyl]pyridine-3-carboxamide] | ≤ 1 |
| Fc1ccc(Cl)cc1-c1cc(-c2cncc(OCC3CCCO3)c2)c2c(n1)NCCO2 (centres unmarked) [Example 34, 3-[6-(5-chloro-2-fluorophenyl)-2H,3H,4H-pyrido[3,2-b][1,4]oxazin-8-yl]-5-[(oxolan-2-yl)methoxy]pyridine] | 5 to 10 |
| CN(C)CCCC(=O)Nc1cncc(-c2cc(-c3cc(Cl)ccc3F)nc3c2OCCN3)c1 [Example 17, N-{5-[6-(5-chloro-2-fluorophenyl)-2H,3H,4H-pyrido[3,2-b][1,4]oxazin-8-yl]pyridin-3-yl}-4-(dimethylamino)butanamide] | ≤ 1 |
| CN1CCN(CCC(=O)Nc2cncc(-c3cc(-c4cc(Cl)ccc4F)nc4c3OCCN4)c2)C(=O)C1 [Example 47, N-{5-[6-(5-chloro-2-fluorophenyl)-2H,3H,4H-pyrido[3,2-b][1,4]oxazin-8-yl]pyridin-3-yl}-3-(4-methyl-2-oxopiperazin-1-yl)propanamide] | 5 to 10 |
| O=C(NCCN1CCNCC1)c1cncc(-c2cc(-c3cc(Cl)ccc3F)nc3c2OCCN3)c1 [Example 20, 5-[6-(5-chloro-2-fluorophenyl)-2H,3H,4H-pyrido[3,2-b][1,4]oxazin-8-yl]-N-[2-(piperazin-1-yl)ethyl]pyridine-3-carboxamide] | 1 to 5 |
| Fc1ccc(Cl)cc1-c1cc(-c2cncc3ccccc23)c2c(n1)NCCO2 [Example 2, 4-[6-(5-chloro-2-fluorophenyl)-2H,3H,4H-pyrido[3,2-b][1,4]oxazin-8-yl]isoquinoline] | 1 to 5 |
| O=C(NCCN1CCOCC1)c1cncc(-c2cc(-c3cc(Cl)ccc3F)nc3c2OCCN3)c1 [Example 11, 5-[6-(5-chloro-2-fluorophenyl)-2H,3H,4H-pyrido[3,2-b][1,4]oxazin-8-yl]-N-[2-(morpholin-4-yl)ethyl]pyridine-3-carboxamide] | 5 to 10 |
| O=C(OC1CC1)c1cncc(-c2cc(-c3cc(Cl)ccc3F)nc3c2OCCN3)c1 [Example 40, Cyclopropyl 5-[6-(5-chloro-2-fluorophenyl)-2H,3H,4H-pyrido[3,2-b][1,4]oxazin-8-yl]pyridine-3-carboxylate] | 1 to 5 |
| O=C(NCCCN1CCNCC1)c1cncc(-c2cc(-c3cc(Cl)ccc3F)nc3c2OCCN3)c1 [Example 28, 5-[6-(5-chloro-2-fluorophenyl)-2H,3H,4H-pyrido[3,2-b][1,4]oxazin-8-yl]-N-[3-(piperazin-1-yl)propyl]pyridine-3-carboxamide] | 1 to 5 |
| CN1CCN(CCC(=O)Nc2cncc(-c3cc(-c4cc(Cl)ccc4F)nc4c3OCCN4)c2)CC1 [Example 38, N-{5-[6-(5-chloro-2-fluorophenyl)-2H,3H,4H-pyrido[3,2-b][1,4]oxazin-8-yl]pyridin-3-yl}-3-(4-methylpiperazin-1-yl)propanamide] | 1 to 5 |
| O=C(CCN1CCNCC1)Nc1cncc(-c2cc(-c3cc(Cl)ccc3F)nc3c2OCCN3)c1 [Example 16, N-{5-[6-(5-chloro-2-fluorophenyl)-2H,3H,4H-pyrido[3,2-b][1,4]oxazin-8-yl]pyridin-3-yl}-3-(piperazin-1-yl)propanamide] | 1 to 5 |
| COc1cncc(-c2cc(-c3cc(Cl)ccc3F)nc3c2OCCN3)c1 [Example 25, 3-[6-(5-chloro-2-fluorophenyl)-2H,3H,4H-pyrido[3,2-b][1,4]oxazin-8-yl]-5-methoxypyridine] | ≤ 1 |
| CN1CCN(CCC(=O)Nc2cncc(-c3cc(-c4cc(Cl)ccc4F)nc4c3OCCN4)c2)CC1=O [Example 46, N-{5-[6-(5-chloro-2-fluorophenyl)-2H,3H,4H-pyrido[3,2-b][1,4]oxazin-8-yl]pyridin-3-yl}-3-(4-methyl-3-oxopiperazin-1-yl)propanamide] | 5 to 10 |
| CNCCCNC(=O)c1cncc(-c2cc(-c3cc(Cl)ccc3F)nc3c2OCCN3)c1 [Example 32, 5-[6-(5-chloro-2-fluorophenyl)-2H,3H,4H-pyrido[3,2-b][1,4]oxazin-8-yl]-N-[3-(methylamino)propyl]pyridine-3-carboxamide] | 1 to 5 |
| Cc1cccc(-c2cc(-c3cncc4ccccc34)c3c(n2)NCCO3)n1 [Example 3, 4-[6-(6-methylpyridin-2-yl)-2H,3H,4H-pyrido[3,2-b][1,4]oxazin-8-yl]isoquinoline] | 1 to 5 |
| CN1CCN(CCNC(=O)c2cncc(-c3cc(-c4cc(Cl)ccc4F)nc4c3OCCN4)c2)CC1 [Example 37, 5-[6-(5-chloro-2-fluorophenyl)-2H,3H,4H-pyrido[3,2-b][1,4]oxazin-8-yl]-N-[2-(4-methylpiperazin-1-yl)ethyl]pyridine-3-carboxamide] | 1 to 5 |
| Fc1ccc(Cl)cc1-c1cc(-c2cncc(OC3CCOC3)c2)c2c(n1)NCCO2 (centres unmarked) [Example 36, 3-[6-(5-chloro-2-fluorophenyl)-2H,3H,4H-pyrido[3,2-b][1,4]oxazin-8-yl]-5-(oxolan-3-yloxy)pyridine] | 1 to 5 |
| Fc1ccc(Cl)cc1-c1cc(-c2cccnc2)c2c(n1)NCCO2 [Example 1, 3-[6-(5-chloro-2-fluorophenyl)-2H,3H,4H-pyrido[3,2-b][1,4]oxazin-8-yl]pyridine] | 5 to 10 |
| O=C(CCN1CCOCC1)Nc1cncc(-c2cc(-c3cc(Cl)ccc3F)nc3c2OCCN3)c1 [Example 9, N-{5-[6-(5-chloro-2-fluorophenyl)-2H,3H,4H-pyrido[3,2-b][1,4]oxazin-8-yl]pyridin-3-yl}-3-(morpholin-4-yl)propanamide] | 1 to 5 |
| Fc1ccc(Cl)cc1-c1cc(-c2cnc3[nH]ncc3c2)c2c(n1)NCCO2 [Example 10, 6-(5-chloro-2-fluorophenyl)-8-{1H-pyrazolo[3,4-b]pyridin-5-yl}-2H,3H,4H-pyrido[3,2-b][1,4]oxazine] | ≤ 1 |
| CNCCC(=O)Nc1cncc(-c2cc(-c3cc(Cl)ccc3F)nc3c2OCCN3)c1 [Example 22, N-{5-[6-(5-chloro-2-fluorophenyl)-2H,3H,4H-pyrido[3,2-b][1,4]oxazin-8-yl]pyridin-3-yl}-3-(methylamino)propanamide] | ≤ 1 |
| CN(C)CCOC(=O)c1cncc(-c2cc(-c3cc(Cl)ccc3F)nc3c2OCCN3)c1 [Example 24, 2-(dimethylamino)ethyl 5-[6-(5-chloro-2-fluorophenyl)-2H,3H,4H-pyrido[3,2-b][1,4]oxazin-8-yl]pyridine-3-carboxylate] | 1 to 5 |
| COC(=O)c1cncc(-c2cc(-c3cc(Cl)ccc3F)nc3c2OCCN3)c1 [Example 19, Methyl 5-[6-(5-chloro-2-fluorophenyl)-2H,3H,4H-pyrido[3,2-b][1,4]oxazin-8-yl]pyridine-3-carboxylate] | 1 to 5 |
| CN(CCC(=O)Nc1cncc(-c2cc(-c3cc(Cl)ccc3F)nc3c2OCCN3)c1)C1COC1 [Example 45, N-{5-[6-(5-chloro-2-fluorophenyl)-2H,3H,4H-pyrido[3,2-b][1,4]oxazin-8-yl]pyridin-3-yl}-3-[methyl(oxetan-3-yl)amino]propanamide] | 1 to 5 |

Same assay, conditions: Table 13; comparative examples, same in vitro assay; read-out: ALK5 IC50

| Compound | IC50 [nM] |
| --- | --- |
| COc1ccc(-c2cc(-c3cc(Cl)ccc3F)nc3c2OCCN3)cc1 [Example C1, 6-(5-chloro-2-fluorophenyl)-8-(4-methoxyphenyl)-2H,3H,4H-pyrido[3,2-b][1,4]oxazine] | 10000 |

Same assay, conditions: summary statements in running text; read-out: IC50 / potency on ALK5

| Compound | IC50 [nM] |
| --- | --- |
| COc1ccc(-c2cc(-c3cc(Cl)ccc3F)nc3c2OCCN3)cc1 [Example C1, 6-(5-chloro-2-fluorophenyl)-8-(4-methoxyphenyl)-2H,3H,4H-pyrido[3,2-b][1,4]oxazine] | > 1700 |
